# Values joined by “and” are separate entries in the source; they are usually repeats but may differ in a detail not shown here. Equal entries are not always repeated.
# Tested on: Swiss mice, Sarcoma 180 sc, mean tumor weight T/C
# Test: NCI In Vivo Anticancer Drug Screen. Data for tumor model Sarcoma 180 (subcutaneous) in Swiss mice
# Conditions: endpoint: mean tumor weight, higher = larger tumour
# Outline: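 Transplantable tumors were established in mice, compound was given, then survival or tumor size was recorded. The treated value was divided by the vehicle-control value.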
# [1] = dose: 10.0 mg/kg/injection, schedule: Q01DX007 (sc), vehicle: steriod suspending solution
# [2] = dose: 125.0 mg/kg/injection, schedule: Q01DX007 (ip), vehicle: carboxymethylcellulose (CMC)
# [3] = dose: 250.0 mg/kg/injection, schedule: Q01DX007 (ip), vehicle: carboxymethylcellulose (CMC)
# [4] = dose: 0.5 mg/kg/injection, schedule: Q01DX007 (sc), vehicle: steriod suspending solution
# [5] = dose: 1.25 mg/kg/injection, schedule: Q01DX007 (sc), vehicle: steriod suspending solution
# [6] = dose: 125.0 mg/kg/injection, schedule: Q01DX007 (ip), vehicle: saline
compound,measurement,setting,value
CC(=O)OCC(=O)[C@@]1(O)CC[C@H]2[C@@H]3C[C@H](C)C4=CC(=O)C=C[C@]4(C)[C@H]3[C@@H](O)C[C@@]21C,T/C,"dose: 7.5 mg/kg/injection, schedule: Q01DX007 (sc), vehicle: steriod suspending solution",122 % of control
same,T/C,[1],59 % of control
same,T/C,"dose: 11.3 mg/kg/injection, schedule: Q01DX007 (sc), vehicle: steriod suspending solution",93 % of control
same,T/C,"dose: 20.0 mg/kg/injection, schedule: Q01DX007 (sc), vehicle: steriod suspending solution",55 % of control
same,T/C,"dose: 27.0 mg/kg/injection, schedule: Q01DX007 (sc), vehicle: steriod suspending solution",41 % of control
same,T/C,"dose: 40.0 mg/kg/injection, schedule: Q01DX007 (sc), vehicle: steriod suspending solution",34 % of control
same,T/C,"dose: 44.4 mg/kg/injection, schedule: Q01DX007 (sc), vehicle: steriod suspending solution",26 % of control
same,T/C,"dose: 66.6 mg/kg/injection, schedule: Q01DX007 (sc), vehicle: steriod suspending solution",39 % of control
same,T/C,"dose: 100.0 mg/kg/injection, schedule: Q01DX007 (sc), vehicle: steriod suspending solution",40 % of control
COC(=O)C1C(O)CCC2CN3CCc4c([nH]c5ccccc45)C3CC21 (stereo not drawn),T/C,"dose: 150.0 mg/kg/injection, schedule: Q01DX007 (ip), vehicle: carboxymethylcellulose (CMC)",72 % of control
O=c1[nH]c(=O)c2[nH]c(N=Nc3ccc(N(CCCl)CCCl)cc3)nc2[nH]1,T/C,"dose: 6.25 mg/kg/injection, schedule: Q#A X014 (ip), vehicle: saline",97 % of control
same,T/C,"dose: 12.5 mg/kg/injection, schedule: Q#A X014 (ip), vehicle: saline",72 % of control
same,T/C,"dose: 25.0 mg/kg/injection, schedule: Q#A X014 (ip), vehicle: saline",85 % of control
same,T/C,"dose: 50.0 mg/kg/injection, schedule: Q#A X014 (ip), vehicle: saline",34 % of control and 49 % of control
same,T/C,"dose: 100.0 mg/kg/injection, schedule: Q#A X014 (ip), vehicle: saline",36 % of control
S=P(N1CCCCCC1)(N1CC1)N1CC1,T/C,"dose: 6.0 mg/kg/injection, schedule: Q01DX007 (ip), vehicle: carboxymethylcellulose (CMC)",90 % of control
same,T/C,"dose: 6.5 mg/kg/injection, schedule: Q#A X014 (ip), vehicle: methylcellulose (MC)",52 % of control
same,T/C,"dose: 9.0 mg/kg/injection, schedule: Q01DX007 (ip), vehicle: carboxymethylcellulose (CMC)",60 % of control
same,T/C,"dose: 10.0 mg/kg/injection, schedule: Q#A X014 (ip), vehicle: methylcellulose (MC)",60 % of control
same,T/C,"dose: 13.0 mg/kg/injection, schedule: Q01DX007 (ip), vehicle: carboxymethylcellulose (CMC)",74 % of control
same,T/C,"dose: 15.0 mg/kg/injection, schedule: Q#A X014 (ip), vehicle: methylcellulose (MC)",53 % of control
same,T/C,"dose: 20.0 mg/kg/injection, schedule: Q01DX007 (ip), vehicle: carboxymethylcellulose (CMC)",62 % of control
same,T/C,"dose: 22.5 mg/kg/injection, schedule: Q#A X014 (ip), vehicle: methylcellulose (MC)",23 % of control
same,T/C,"dose: 29.0 mg/kg/injection, schedule: Q01DX007 (ip), vehicle: carboxymethylcellulose (CMC)",89 % of control
same,T/C,"dose: 45.0 mg/kg/injection, schedule: Q01DX007 (ip), vehicle: carboxymethylcellulose (CMC)",57 % of control
same,T/C,"dose: 45.0 mg/kg/injection, schedule: Q01DX007 (ip), vehicle: saline",25 % of control
same,T/C,"dose: 67.0 mg/kg/injection, schedule: Q01DX007 (ip), vehicle: carboxymethylcellulose (CMC)",38 % of control
same,T/C,"dose: 90.0 mg/kg/injection, schedule: Q01DX007 (ip), vehicle: saline",12 % of control
CC1(C)OCC(C(OC(=O)c2ccccc2)C(OC2CCCCO2)C2COC(C)(C)O2)O1 (stereo not drawn),T/C,"dose: 62.5 mg/kg/injection, schedule: Q01DX007 (ip), vehicle: carboxymethylcellulose (CMC)",90 % of control
same,T/C,[2],86 % of control
same,T/C,[3],100 % of control
Cc1cc(C(=O)NN)c(C#N)c(=O)[nH]1,T/C,"dose: 111.0 mg/kg/injection, schedule: Q01DX007 (ip), vehicle: carboxymethylcellulose (CMC)",82 % of control
same,T/C,"dose: 166.0 mg/kg/injection, schedule: Q01DX007 (ip), vehicle: carboxymethylcellulose (CMC)",87 % of control
same,T/C,[3],30 % of control
same,T/C,"dose: 375.0 mg/kg/injection, schedule: Q01DX007 (ip), vehicle: carboxymethylcellulose (CMC)",46 % of control
CC1CCC2(NC1)OC1CC3C4CC=C5CC(OC6OC(CO)C(OC7OC(C)C(O)C(O)C7O)C(O)C6OC6OC(C)C(O)C(O)C6O)CCC5(C)C4CCC3(C)C1C2C (stereo not drawn),T/C,"dose: 150.0 mg/kg/injection, schedule: Q01DX007 (sc), vehicle: steriod suspending solution",115 % of control
same,T/C,"dose: 300.0 mg/kg/injection, schedule: Q01DX007 (sc), vehicle: steriod suspending solution",100 % of control
same,T/C,"dose: 500.0 mg/kg/injection, schedule: Q01DX007 (sc), vehicle: steriod suspending solution",79 % of control
COc1ccc2c(c1)CC[C@@H]1[C@@H]2CC[C@]2(C)[C@H](O)[C@H](O)C[C@@H]12,T/C,[4],117 % of control
same,T/C,[5],81 % of control
same,T/C,"dose: 2.5 mg/kg/injection, schedule: Q01DX007 (sc), vehicle: steriod suspending solution",66 % of control and 90 % of control
same,T/C,"dose: 5.0 mg/kg/injection, schedule: Q01DX007 (sc), vehicle: steriod suspending solution",60 % of control
same,T/C,[1],61 % of control
CC(=O)Nc1cc2c(cc1[N+](=O)[O-])-c1ccccc1C2O (stereo not drawn),T/C,"dose: 98.0 mg/kg/injection, schedule: Q01DX007 (ip), vehicle: other",100 % of control
same,T/C,"dose: 148.0 mg/kg/injection, schedule: Q01DX007 (ip), vehicle: other",120 % of control
same,T/C,"dose: 333.0 mg/kg/injection, schedule: Q01DX007 (ip), vehicle: other",65 % of control and 67 % of control
same,T/C,"dose: 333.0 mg/kg/injection, schedule: Q01DX007 (ip), vehicle: saline",81 % of control
same,T/C,"dose: 500.0 mg/kg/injection, schedule: Q01DX007 (ip), vehicle: other",25 % of control
same,T/C,"dose: 500.0 mg/kg/injection, schedule: Q01DX007 (ip), vehicle: saline",93 % of control
same,T/C,"dose: 750.0 mg/kg/injection, schedule: Q01DX007 (ip), vehicle: saline",64 % of control
CN(C)[C@@H]1C(=O)C(C(=O)NCNCCCC(=O)O)=C(O)[C@@]2(O)C(=O)C3=C(O)c4c(O)cccc4[C@@](C)(O)[C@H]3C[C@@H]12,T/C,"dose: 111.0 mg/kg/injection, schedule: Q#A X014 (ip), vehicle: saline",97 % of control and 112 % of control
same,T/C,"dose: 166.5 mg/kg/injection, schedule: Q#A X014 (ip), vehicle: saline",101 % of control and 105 % of control
same,T/C,"dose: 250.0 mg/kg/injection, schedule: Q#A X014 (ip), vehicle: saline",52 % of control
Cc1[nH]ccc2c(C)c3nc4ccccc4c3cc12,T/C,"dose: 25.0 mg/kg/injection, schedule: Q01DX007 (ip), vehicle: water",171 % of control
same,T/C,"dose: 50.0 mg/kg/injection, schedule: Q01DX007 (ip), vehicle: water",122 % of control
same,T/C,"dose: 100.0 mg/kg/injection, schedule: Q01DX007 (ip), vehicle: water",116 % of control
same,T/C,"dose: 200.0 mg/kg/injection, schedule: Q01DX007 (ip), vehicle: water",42 % of control
O=C1c2ccccc2C(=O)c2c1ccc1c2[nH]c2ccccc21,T/C,"dose: 82.0 mg/kg/injection, schedule: Q01DX007 (ip), vehicle: saline",48 % of control
same,T/C,[6],50 % of control
same,T/C,"dose: 187.0 mg/kg/injection, schedule: Q01DX007 (ip), vehicle: saline",23 % of control
same,T/C,"dose: 280.0 mg/kg/injection, schedule: Q01DX007 (ip), vehicle: saline",42 % of control
COc1cc(C(=O)CC2CCCCN2)ccc1O (stereo not drawn),T/C,"dose: 55.0 mg/kg/injection, schedule: Q01DX007 (ip), vehicle: saline",62 % of control
same,T/C,"dose: 83.0 mg/kg/injection, schedule: Q01DX007 (ip), vehicle: saline",120 % of control
same,T/C,[6],95 % of control and 96 % of control
same,T/C,"dose: 250.0 mg/kg/injection, schedule: Q01DX007 (ip), vehicle: saline",83 % of control
C1CN1c1nc(N2CC2)nc(N2CC2)n1,T/C,"dose: 85.0 micrograms/kg/injection, schedule: Q01DX007 (ip), vehicle: carboxymethylcellulose (CMC)",111 % of control
same,T/C,"dose: 170.0 micrograms/kg/injection, schedule: Q01DX007 (ip), vehicle: carboxymethylcellulose (CMC)",95 % of control
same,T/C,"dose: 340.0 micrograms/kg/injection, schedule: Q01DX007 (ip), vehicle: carboxymethylcellulose (CMC)",119 % of control
same,T/C,"dose: 680.0 micrograms/kg/injection, schedule: Q01DX007 (ip), vehicle: carboxymethylcellulose (CMC)",124 % of control
O=C(O)c1c(-c2ccccc2)[nH]c2cc(Cl)ccc2c1=O,T/C,"dose: 55.5 mg/kg/injection, schedule: Q01DX007 (ip), vehicle: carboxymethylcellulose (CMC)",87 % of control
same,T/C,"dose: 83.0 mg/kg/injection, schedule: Q01DX007 (ip), vehicle: carboxymethylcellulose (CMC)",51 % of control
same,T/C,[2],25 % of control
C[C@]12CC[C@@H]3c4ccc(O)cc4CC[C@H]3[C@@H]1C[C@H](O)C2,T/C,"dose: 0.25 mg/kg/injection, schedule: Q#A X014 (sc), vehicle: steriod suspending solution",120 % of control
same,T/C,[4],110 % of control
same,T/C,[5],60 % of control
same,T/C,"dose: 1.25 mg/kg/injection, schedule: Q#A X014 (sc), vehicle: steriod suspending solution",99 % of control
same,T/C,"dose: 2.5 mg/kg/injection, schedule: Q#A X014 (sc), vehicle: steriod suspending solution",58 % of control
same,T/C,"dose: 10.0 mg/kg/injection, schedule: Q#A X014 (sc), vehicle: steriod suspending solution",73 % of control

# Source: PubChem BioAssay AID342 (DTP/NCI, 2004)
